Assay results taken from the Deep4Chem optical property database.

Assay: solvent given as SMILES

Work on `Cc1cc(O)c(C(=O)/C=C/c2ccccc2Cl)c(=O)o1` yielded an absorption maximum (in CC#N) of 353 nm and an absorption maximum (in ClCCl) of 355 nm.
Molecule `CC(C)C[Si](C#Cc1c2c(=O)c3ccccc3c2c(C#C[Si](CC(C)C)(CC(C)C)CC(C)C)c2c(=O)c3ccccc3c12)(CC(C)C)CC(C)C` has an absorption maximum (in ClC(Cl)Cl) of 524 nm.
`N#Cc1c(C#N)c2cc(Cl)c(Cl)cc2c2cc(Cl)c(Cl)cc12` gave an absorption maximum (in ClC(Cl)Cl) of 343 nm.
Work on `CC1=C(c2cccs2)C(C)=[N+]2C1=C(c1ccccc1)c1c(C)c(-c3cccs3)c(C)n1[B-]2(F)F` yielded an absorption maximum (in CO) of 521 nm, an absorption maximum (in Cc1ccccc1) of 530 nm and an absorption maximum (in ClCCl) of 527 nm.
Molecule `CCNc1cc2oc3c/c(=[NH+]\CC)c(C)cc-3c(-c3ccccc3C(=O)OCC)c2cc1C` has an absorption maximum (in CC#N) of 524 nm, an absorption maximum (in CCO) of 527 nm and an absorption maximum (in CN(C)C=O) of 534 nm. It also gave an absorption maximum (in CO) of 530 nm and an absorption maximum (in O) of 525 nm.
Work on `N#Cc1c(-n2nnc3ccc(Cl)cc32)n([C@H]2C[C@H](O)[C@@H](CO)O2)c2ncnc(N)c12` yielded an absorption maximum (in CO) of 276 nm.
Molecule `O=[N+]([O-])c1ccc(/C=C/c2cn(S(=O)(=O)c3ccccc3)c3ccccc23)cc1` has an absorption maximum (in CC#N) of 369 nm, an absorption maximum (in CCCCCCC) of 357 nm and an absorption maximum (in CO) of 367 nm. For the same molecule, the absorption maximum (in O) was 378 nm.
Work on `CCCCCC(=O)Oc1cc2[nH]c(cc2CCOC)c2nc(ccc3[nH]c(cc3CCOC)c3nc1C(CCOC)=C3)C(CCOC)=C2` yielded an absorption maximum (in Cc1ccccc1) of 646 nm.
Molecule `O=c1oc2ccc3ccc(O)cc3c2nc1-c1ccccc1` has an absorption maximum (in c1ccccc1) of 406 nm.
Work on `COc1ccc(C(=O)OCc2ccc3c4cccc5cccc(c6cccc2c63)c54)cc1` yielded an absorption maximum (in CCO) of 439 nm.
`CC1=CC(C)=[N+]2C1=Cc1c(C)cc(C)n1[B-]2(F)F` showed an absorption maximum (in CCCCCC) of 508 nm, an absorption maximum (in CO) of 503 nm and an absorption maximum (in ClCCl) of 506 nm.
`Fc1nc(F)c(F)c(C#Cc2ccccc2C#Cc2c(F)c(F)nc(F)c2F)c1F` gave an absorption maximum (in CC#N) of 300 nm.
For `CC1=[N+]2C(=C(c3ccccc3)c3c4c(c(C)n3[B-]2(F)F)CCc2ccccc2-4)C2=C1CCc1ccccc12`, the absorption maximum (in CC#N) was 565 nm.
With `CCCN1c2ccccc2Sc2cc(/C=C\c3cc(=O)oc4cc(O)ccc34)ccc21` the absorption maximum (in ClC(Cl)Cl) was 422 nm.
In the case of `CCOC(=O)C1=C(N)n2c(=O)c3ccccc3c(=O)n2C1c1cccs1` (stereo not drawn), the absorption maximum (in CS(C)=O) is reported as 365 nm.
Molecule `C=CCNc1ccc2ccc3oc4cc(=[N+](C)C)ccc-4nc3c2c1` has an absorption maximum (in CC#N) of 569 nm, an absorption maximum (in CCO) of 572 nm and an absorption maximum (in ClCCl) of 582 nm. It also gave an absorption maximum (in O) of 552 nm.
Molecule `CN(C)c1cc2c(cc1F)c(=O)c1cc(F)c(N)cc1n2C` has an absorption maximum (in CCO) of 369 nm.
In the case of `CCCCN1C(=O)c2ccc3c4ccc5c6c(ccc(c7ccc(c2c37)C1=O)c64)C(=O)N(CCCC)C5=O`, the absorption maximum (in ClC(Cl)Cl) is reported as 526 nm.
For `Cc1ccc(O)cc1`, the absorption maximum (in O) was 276 nm.
`Cc1cc2nc3[nH]c(=O)[nH]c(=O)c3nc2cc1C` showed an absorption maximum (in CC#N) of 380 nm.
`CC1(C)c2ccccc2N(c2cc(C#N)c(C#N)cc2N2c3ccccc3C(C)(C)c3ccccc32)c2ccccc21` showed an absorption maximum (in c1ccc2c(c1)c1ccccc1n2-c1ccc(-c2ccc(-n3c4ccccc4c4ccccc43)cc2)cc1) of 494 nm.
With `CC(C)(C)OC(=O)NCC(=O)OCc1ccc2c3cccc4cccc(c5cccc1c52)c43` the absorption maximum (in CCO) was 439 nm.
`COc1c2ccccc2c(OC)c2c(C#C[Si](C(C)C)(C(C)C)C(C)C)c3cc4sccc4cc3c(C#C[Si](C(C)C)(C(C)C)C(C)C)c12` showed an absorption maximum (in ClCCl) of 639 nm.
With `Cc1cccc2nc3c(=O)n(C)c(=O)nc-3n(C)c12` the absorption maximum (in CC#N) was 439 nm.
Work on `CN(C)c1ccc(-c2nc3nc4ccccc4nc3n2-c2ccc(C(C)(C)C)cc2)cc1` yielded an absorption maximum (in CC#N) of 411 nm.
Work on `CCOC(=O)c1ccc(C2=Cc3cc4ccccc4cc3P2(=O)c2ccccc2)cc1` (stereo not drawn) yielded an absorption maximum (in ClCCl) of 390 nm.
Work on `COC(=O)/C(C#N)=C/c1cn(-c2ccccc2)nc1-c1ccc([N+](=O)[O-])cc1` yielded an absorption maximum (in C1CCOC1) of 333 nm, an absorption maximum (in C1COCCO1) of 333 nm and an absorption maximum (in CCO) of 335 nm. It also gave an absorption maximum (in CCOC(C)=O) of 330 nm, an absorption maximum (in CN(C)C=O) of 330 nm and an absorption maximum (in CO) of 330 nm. The absorption maximum (in CS(C)=O) was 330 nm, the absorption maximum (in Cc1ccccc1) was 347 nm and the absorption maximum (in ClC(Cl)Cl) was 339 nm.
With `Cc1s[c+](N2CCOCC2)sc1-c1cc(I)cc(I)c1[O-]` the absorption maximum (in C1CCOC1) was 425 nm, the absorption maximum (in CC#N) was 409 nm and the absorption maximum (in CO) was 371 nm. It also gave an absorption maximum (in ClCCl) of 413 nm.
In the case of `CC(C)c1cccc(C(C)C)c1-n1c(=O)c2ccc3c4ccc5c(=O)n(-c6c(C(C)C)cccc6C(C)C)c(=O)c6cc7c(-c8ccccn8)nc8cc(c1=O)c2c3c8c7c4c56`, the absorption maximum (in ClC(Cl)Cl) is reported as 474 nm.
For `CC1=[N+]2C(=c3c4c5ccccc5cc5cccc(c6cc(C)n(c36)[B-]2(F)F)c54)C=C1`, the absorption maximum (in C1CCOC1) was 584 nm, the absorption maximum (in CCCCCC) was 583 nm and the absorption maximum (in CO) was 583 nm. The absorption maximum (in CS(C)=O) was 587 nm, the absorption maximum (in ClC(Cl)Cl) was 584 nm and the absorption maximum (in ClCCl) was 583 nm.
`O=c1c2ccccc2n(-c2ccc(-c3ccc(N(c4ccccc4)c4ccccc4)cc3)cc2)c2ccccc12` showed an absorption maximum (in ClCCl) of 394 nm.
In the case of `Cc1ccc(C(=O)OCc2ccc3c4cccc5cccc(c6cccc2c63)c54)cc1`, the absorption maximum (in CCO) is reported as 438 nm.
